Test results published in patent US20180237399A1, “COMPOUNDS HAVING AGONISTIC EFFECT AGAINST GPR84, PREPARATION METHOD FOR COMPOUNDS AND USE OF COMPOUNDS” (SHANGHAI INSTITUTE OF MATERIA MEDICA, CHINESE ACADEMY OF …, priority 2015, published 2018).

molecular target: T1, GPR84 (Homo sapiens, UniProt Q9NQS5); experiment: not given; conditions: CHO-GPR84 cells, cAMP assay; read-out: potencies (GPR84 agonists); cited from earlier work
Target sequence in this assay (Q9NQS5 whole entry, species assumed): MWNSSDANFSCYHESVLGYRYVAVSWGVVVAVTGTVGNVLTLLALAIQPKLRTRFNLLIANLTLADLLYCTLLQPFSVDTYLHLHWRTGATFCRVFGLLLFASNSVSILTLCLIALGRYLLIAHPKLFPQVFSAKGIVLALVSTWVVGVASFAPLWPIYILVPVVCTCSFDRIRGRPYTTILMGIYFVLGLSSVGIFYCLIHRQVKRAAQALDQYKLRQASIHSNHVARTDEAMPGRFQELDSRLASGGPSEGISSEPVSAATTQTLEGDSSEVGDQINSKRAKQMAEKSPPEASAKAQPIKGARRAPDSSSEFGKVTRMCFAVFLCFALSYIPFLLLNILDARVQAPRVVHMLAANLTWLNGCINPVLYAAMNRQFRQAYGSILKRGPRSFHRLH

Compound | EC50
CCCCCCCCCCCC(=O)O [lauric acid] | 9000 nM

molecular target: T1, GPR84; experiment: not given; conditions: in words; cited from earlier work
Target sequence in this assay (Q9NQS5 whole entry, species assumed): as above

Compound | GPR84 agonist activities
CCCCCCCCC(O)C(=O)O (stereo not shown) [2-OH—C10] | some GPR84 agonist activities
CCCCCCCCCCC(O)C(=O)O (stereo not shown) [2-OH—C12] | some GPR84 agonist activities
CCCCCCCC(O)CC(=O)O (stereo not shown) [3-OH—C10] | some GPR84 agonist activities
CCCCCCCCCC(O)CC(=O)O (stereo not shown) [3-OH—C12] | some GPR84 agonist activities

molecular target: T1, GPR84; experiment: Detection of cytoplasmic calcium ion concentration with Fluo-4 fluorescent dye tracer assay (GPR84 agonist activity); assay type: cell-based; parameters: expressed in transfected cells; host or cells: HEK293; conditions: HEK293 cell line transfected with GPR84 and G16; Fluo-4 calcium fluorescence
Experimental: Detection of Cytoplasmic Calcium Ion Concentration with Fluo-4 Fluorescent Dye Tracer Assay
The GPR84 agonist activity of the compounds of the invention was tested.
The human GPR84 cell line was obtained by transfecting a plasmid encoding the GPR84 and G16 proteins in the HEK293 cell line. The fluorescent dye Fluo-4 AM was purchased from Invitrogen.
Intracellular Ca^2+ ion is a very important second messenger of G protein-coupled receptor signaling pathway. […] Fluo-4 is a Ca^2+ ion-specific fluorescent probe that binds quantitatively to Ca^2+ ions and emits fluorescence. Therefore, fluorescence assay was used to detect the agonistic activity of compounds in 96-well or 384-well flat bottom microplates. The GPR84 cells were incubated with the Fluo-4 fluorescent dye and added with different concentrations of compounds for stimulation. The changes in the intracellular calcium concentration were detected by the fluorescence intensity of dyes.
• 1. […] The pH of the solution was adjusted to 7.4 with hydrochloric acid or NaOH. The solution was filtered, and stored at 4° C. for one month. • 2. Preparation of Ca^2+ buffer: Firstly, a 560 mM D-glucose (100×) stock solution and a 250 mM Sulfinpyrazone (1000×) stock solution were prepared. Then, to 100 mL of HBSS, was added BSA (0.5 g), 560 mM D-glucose stock solution (1 mL) and 250 mM Sulfinpyrazone (100 μL). […] The Ca^2+ buffer was mixed and used as freshly prepared. • 3. Preparation of dyes solution: Firstly, a stock solution of 3% Cremophor EL (100×) in PBS and a stock solution of 2 mM Fluo-4 (1000×) in DMSO was prepared. Secondly, one milliliter of dye solution was prepared by mixing 1 μL of 2 mM Fluo-4 AM with 10 μL of 3% Cremophor EL and diluting with 1 mL of Ca^2+ buffer and mixed. • 4. The GPR84 cells were cultured in a 96-well plate at a starting density of 4×10^4 cells. The cells were continually cultured for more than 24 hours so that the cell density was 80-90% for detection. • 5. The culture fluid was removed from the cells to be tested. The cells were added freshly prepared dyes and incubated in a 37-degree incubator for 40 minutes to 50 minutes. • 6. Preparation of […] solution: Compounds are dissolved and diluted to 3-fold the final working concentration with freshly prepared Ca^2+ buffer. If compounds are dissolved in DMSO, the final DMSO concentration should not exceed 1%. • 7. After the incubation completed, the dye was removed. The cells were washed with Ca^2+ buffer and then incubated with an additional 50 μL of Ca^2+ buffer for 5 to 10 minutes. • 8. The cells were stimulated with 25 μL/well of Ca^2′ buffer containing different concentrations of the compound. The plate was read by using the FlexStation III Multi-Mode Microplate Reader. The changes in the intracellular calcium concentration were detected by the fluorescence intensity of dyes.
Target sequence in this assay (Q9NQS5 whole entry): as the sequence (Q9NQS5 whole entry, species assumed) above

Compound | EC50
CCCCCc1nc(O)cc(O)n1 [LY182] | 3670 nM
CC(C)CCCc1nc(O)cc(O)n1 [LY196b] | 2100 nM
CCCCCCCc1cc(O)cc(O)n1 [LY209] | 1.25 nM
CCCCCCCc1nc(O)cc(O)n1 [LY210-b] | 12.7 nM
C#CCCCSc1nc(O)cc(O)n1 [LY210] | 21600 nM
Oc1cc(O)nc(SCC2CCC2)n1 [LY212] | 43400 nM
CCCCCSc1nc(O)cc(O)n1 [LY214-5] | 2480 nM
CCCCCCCCc1cc(O)cc(O)n1 [LY223] | 1.34 nM
CCC#CCCSc1nc(O)cc(O)n1 [LY224-a] | 653 nM
CCCCCCCCc1nc(O)cc(O)n1 [LY224-b] | 11.4 nM
CCCCCCCCc1cc(=O)[nH]c(=O)[nH]1 [LY224-c] | 811 nM
CCCCCCCCc1nc(O)nc(O)n1 [LY225-b] | 1020 nM
CC/C=C\CCSc1nc(O)cc(O)n1 [LY226] | 924 nM

Further lines, results first:

EC50 | Compound
641 nM | CC(C)CCCSc1nc(O)cc(O)n1 [LY228-6b]
435 nM | CCCCCCCCCc1cc(O)cc(O)c1 [LY236]
299 nM | CCCCCCCC(C)c1nc(O)cc(O)n1 (stereo not shown) [LY238-c]
3.51 nM | CCCCCCCCCc1cc(O)cc(=O)o1 [LY238-d]
48.7 nM | CCCCCCCCCc1nc(O)cc(O)n1 [LY238]
6.14 nM | CCCCCCCCNc1nc(O)cc(O)n1 [LY239]
340 nM | CCCCCCCCc1cc(=O)[nH]c(=S)[nH]1 [LY240]
231 nM | CCCCCCCSc1nc(O)cc(O)n1 [LY242-7]
6.1 nM | CCCCc1ccc(-c2cc(O)cc(O)n2)cc1 [LY243]
88.1 nM | CCc1ccc(CCc2nc(O)cc(O)n2)cc1 [LY244]
3860 nM | Oc1cc(O)nc(SCCc2ccccc2)n1 [LY248]
264 nM | CCCCCCCCSc1nc(O)cc(O)n1 [LY256-8]
573 nM | Oc1cc(O)nc(SCCCc2ccccc2)n1 [LY262-a]
271 nM | CCc1ccc(CSc2nc(O)cc(O)n2)cc1 [LY262-b]
2940 nM | O=c1cc(O)nc(SCCc2ccc(F)cc2)[nH]1 [LY266-a]
1990 nM | Oc1cc(O)nc(SCCc2ccccc2F)n1 [LY266-b]
2590 nM | Oc1cc(O)nc(SCCc2cccc(F)c2)n1 [LY266-c]
435 nM | Oc1cc(O)nc(SCCCCc2ccccc2)n1 [LY276]
1080 nM | Oc1cc(O)nc(SCCCCCc2ccccc2)n1 [LY290-a]
1160 nM | CCCCCCCCCCCCSc1nc(O)cc(O)n1 [LY312-12]
25700 nM | CCCCCCCCCCCCCCSc1nc(O)cc(O)n1 [LY340-14]
11300 nM | CCCCCCCCCCCCCCCCSc1nc(O)cc(O)n1 [LY368-16]
